Data from article PMC5218480 (PLoS ONE, 2017).

System: MV-4-11 cells
Assay: Gene expression microarray analysis (Affymetrix PrimeView) and GSEA
Assay type: cell-based, human
Set-up: RFU PODN (11730768_x_at) / Fold change /veh PODN (11730768_x_at) / RFU LINC00158 (11744669_a_at) / Fold change /veh LINC00158 (11744669_a_at) / RFU DUSP10 (11751237_a_at) / Fold change /veh DUSP10 (11751237_a_at) / RFU ID3 (11757404_x_at) / Fold change /veh ID3 (11757404_x_at) / RFU PLEKHG5 (11737974_s_at) / Fold change /veh PLEKHG5 (11737974_s_at) / RFU LRRC4B (11730491_at) / Fold change /veh LRRC4B (11730491_at) / RFU GIMAP4 (11747438_a_at) / Fold change /veh GIMAP4 (11747438_a_at) / RFU KRT8 (11758183_x_at) / Fold change /veh KRT8 (11758183_x_at) / RFU CNN1 (11734310_a_at) / Fold change /veh CNN1 (11734310_a_at) / RFU VPS37D (11726825_at) / Fold change /veh VPS37D (11726825_at) / RFU C10orf10 (11716522_x_at) / Fold change /veh C10orf10 (11716522_x_at) / RFU KIR2DL2 /// KIR2DL4 /// KIR2DL5A /// KIR2DL5B /// KIR2DS1 /// KIR2DS2 /// KIR2DS3 /// KIR2DS4 /// KIR3DL3 /// KIR3DL3 /// KIR3DS1 (11738374_at) / Fold change /veh KIR2DL2 /// KIR2DL4 /// KIR2DL5A /// KIR2DL5B /// KIR2DS1 /// KIR2DS2 /// KIR2DS3 /// KIR2DS4 /// KIR3DL3 /// KIR3DL3 /// KIR3DS1 (11738374_at) / RFU C1QL1 (11718748_at) / Fold change /veh C1QL1 (11718748_at) / RFU TMPRSS4 (11747572_a_at) / Fold change /veh TMPRSS4 (11747572_a_at) / RFU HAMP (11756126_x_at) / Fold change /veh HAMP (11756126_x_at) / RFU RNFT2 (11725882_a_at) / Fold change /veh RNFT2 (11725882_a_at) / RFU NR4A2 (11747474_a_at) / Fold change /veh NR4A2 (11747474_a_at) / RFU ABCC12 (11746883_a_at) / Fold change /veh ABCC12 (11746883_a_at) / RFU TMEM136 (11760407_x_at) / Fold change /veh TMEM136 (11760407_x_at) / RFU CLDN22 /// WWC2 (11732394_at) / Fold change /veh CLDN22 /// WWC2 (11732394_at) / RFU HLA-DPB1 (11760878_x_at) / Fold change /veh HLA-DPB1 (11760878_x_at) / RFU SPINT1 (11716480_a_at) / Fold change /veh SPINT1 (11716480_a_at) / RFU GAP43 (11754022_s_at) / Fold change /veh GAP43 (11754022_s_at) / RFU A4GNT (11735810_at) / Fold change /veh A4GNT (11735810_at) / RFU PRB3 (11715151_x_at) / Fold change /veh PRB3 (11715151_x_at) / RFU TUBB4B (11761932_at) / Fold change /veh TUBB4B (11761932_at) / RFU CAPN14 (11732068_a_at) / Fold change /veh CAPN14 (11732068_a_at) / RFU TMCC2 (11721928_a_at) / Fold change /veh TMCC2 (11721928_a_at) / RFU IRGQ (11745062_a_at) / Fold change /veh IRGQ (11745062_a_at) / RFU FAM174B (11720279_a_at) / Fold change /veh FAM174B (11720279_a_at) / RFU TMPRSS4 (11748680_a_at) / Fold change /veh TMPRSS4 (11748680_a_at) / RFU FAM212B (11763350_a_at) / Fold change /veh FAM212B (11763350_a_at) / RFU PLEKHG5 (11743358_a_at) / Fold change /veh PLEKHG5 (11743358_a_at) / RFU ZSCAN30 (11745921_a_at) / Fold change /veh ZSCAN30 (11745921_a_at) / RFU CMKLR1 (11741424_a_at) / Fold change /veh CMKLR1 (11741424_a_at) / RFU LOC101060620 /// MAPK8IP1 (11723275_at) / Fold change /veh LOC101060620 /// MAPK8IP1 (11723275_at) / RFU SPTSSB (11747773_x_at) / Fold change /veh SPTSSB (11747773_x_at) / RFU PRSS12 (11739890_at) / Fold change /veh PRSS12 (11739890_at) / RFU BIN1 (11741810_x_at) / Fold change /veh BIN1 (11741810_x_at) / RFU WNT11 (11732464_a_at) / Fold change /veh WNT11 (11732464_a_at) / RFU C10orf10 (11716521_a_at) / Fold change /veh C10orf10 (11716521_a_at) / RFU C5orf56 (11738089_at) / Fold change /veh C5orf56 (11738089_at) / RFU CYB561 (11721691_x_at) / Fold change /veh CYB561 (11721691_x_at) / RFU ANKRD19P (11752326_a_at) / Fold change /veh ANKRD19P (11752326_a_at) / RFU OR2T12 /// OR2T33 /// OR2T8 (11738714_s_at) / Fold change /veh OR2T12 /// OR2T33 /// OR2T8 (11738714_s_at) / RFU VCAN (11748164_a_at) / Fold change /veh VCAN (11748164_a_at) / RFU JSRP1 (11732532_at) / Fold change /veh JSRP1 (11732532_at) / RFU KRTAP10-11 (11738290_x_at) / Fold change /veh KRTAP10-11 (11738290_x_at) / RFU MYO3A (11730013_a_at) / Fold change /veh MYO3A (11730013_a_at) / RFU EBF3 (11725865_a_at) / Fold change /veh EBF3 (11725865_a_at) / RFU CAMK2N1 (11719241_x_at) / Fold change /veh CAMK2N1 (11719241_x_at) / RFU C5orf56 (11738088_a_at) / Fold change /veh C5orf56 (11738088_a_at) / RFU OLFML3 (11715873_a_at) / Fold change /veh OLFML3 (11715873_a_at) / RFU LOC100653217 /// NTM (11731650_a_at) / Fold change /veh LOC100653217 /// NTM (11731650_a_at) / RFU MAPK11 (11762145_a_at) / Fold change /veh MAPK11 (11762145_a_at) / RFU FIZ1 (11724087_x_at) / Fold change /veh FIZ1 (11724087_x_at) / RFU OASL (11726364_x_at) / Fold change /veh OASL (11726364_x_at) / RFU SOX15 (11748057_x_at) / Fold change /veh SOX15 (11748057_x_at) / RFU CD79A (11719716_a_at) / Fold change /veh CD79A (11719716_a_at) / RFU HIST1H1D (11736915_at) / Fold change /veh HIST1H1D (11736915_at) / RFU CASKIN2 (11723855_a_at) / Fold change /veh CASKIN2 (11723855_a_at) / RFU LOC730098 (11760151_x_at) / Fold change /veh LOC730098 (11760151_x_at) / RFU OR4N2 (11742367_at) / Fold change /veh OR4N2 (11742367_at) / RFU PRRT2 (11749266_a_at) / Fold change /veh PRRT2 (11749266_a_at) / RFU SNX32 (11753110_a_at) / Fold change /veh SNX32 (11753110_a_at) / RFU CDHR5 (11726645_a_at) / Fold change /veh CDHR5 (11726645_a_at) / RFU RCAN1 (11760418_a_at) / Fold change /veh RCAN1 (11760418_a_at) / RFU FAM167A (11723789_a_at) / Fold change /veh FAM167A (11723789_a_at) / RFU FAM26E (11764081_at) / Fold change /veh FAM26E (11764081_at) / RFU ISYNA1 (11749810_s_at) / Fold change /veh ISYNA1 (11749810_s_at) / RFU ACY1 (11761880_at) / Fold change /veh ACY1 (11761880_at) / RFU 11764098_at / Fold change /veh 11764098_at / RFU SAMD14 (11745864_x_at) / Fold change /veh SAMD14 (11745864_x_at) / RFU NPB (11741838_a_at) / Fold change /veh NPB (11741838_a_at) / RFU TMPRSS6 (11731388_a_at) / Fold change /veh TMPRSS6 (11731388_a_at) / RFU KRTAP10-2 (11738614_at) / Fold change /veh KRTAP10-2 (11738614_at) / RFU ARHGAP8 /// PRR5-ARHGAP8 (11727945_x_at) / Fold change /veh ARHGAP8 /// PRR5-ARHGAP8 (11727945_x_at) / RFU KRTAP5-7 /// NADSYN1 (11734609_at) / Fold change /veh KRTAP5-7 /// NADSYN1 (11734609_at) / RFU RASL12 (11751679_a_at) / Fold change /veh RASL12 (11751679_a_at) / RFU CDKN2B (11736163_a_at) / Fold change /veh CDKN2B (11736163_a_at) / RFU PRF1 (11729649_at) / Fold change /veh PRF1 (11729649_at) / RFU, ZNF638 /// ZNF638-IT1 / Fold change vs veh, ZNF638 /// ZNF638-IT1 / RFU, PANK3 / Fold change vs veh, PANK3 / RFU, SH3YL1 / Fold change vs veh, SH3YL1 / RFU, ZEB2 / Fold change vs veh, ZEB2 / RFU, NRIP1 / Fold change vs veh, NRIP1 / RFU, PTTG1IP / Fold change vs veh, PTTG1IP / RFU, CAPN2 / Fold change vs veh, CAPN2 / RFU, MED14 / Fold change vs veh, MED14 / RFU, SNORA58 / Fold change vs veh, SNORA58 / RFU, C1orf63 / Fold change vs veh, C1orf63 / RFU, LRRFIP1 / Fold change vs veh, LRRFIP1 / RFU, NDUFAF7 / Fold change vs veh, NDUFAF7 / RFU, SLC12A2 / Fold change vs veh, SLC12A2 / RFU, IBTK / Fold change vs veh, IBTK / RFU, ESF1 / Fold change vs veh, ESF1 / Fold change vs veh, TMEM50B / RFU, TAOK1 / Fold change vs veh, TAOK1 / RFU, ACBD3 / Fold change vs veh, ACBD3 / RFU, TMA16 / Fold change vs veh, TMA16 / RFU, RWDD3 / Fold change vs veh, RWDD3 / RFU, BCAT1 / Fold change vs veh, BCAT1 / RFU, EDEM3 / Fold change vs veh, EDEM3 / RFU, TMEM33 / Fold change vs veh, TMEM33 / RFU, WDR75 / Fold change vs veh, WDR75 / RFU, AHCTF1 / Fold change vs veh, AHCTF1 / RFU, TFRC / Fold change vs veh, TFRC / RFU, ZDHHC17 / Fold change vs veh, ZDHHC17 / RFU, NOM1 / Fold change vs veh, NOM1 / RFU, ARL8B / Fold change vs veh, ARL8B / RFU, ZBTB11 / Fold change vs veh, ZBTB11 / RFU, TAMM41 / Fold change vs veh, TAMM41 / RFU, KIAA1704 /// LOC100996395 / Fold change vs veh, KIAA1704 /// LOC100996395 / RFU, ING1 / Fold change vs veh, ING1 / RFU, TRMT61B / Fold change vs veh, TRMT61B / RFU, FUBP3 / Fold change vs veh, FUBP3 / RFU, TP53 / Fold change vs veh, TP53 / RFU, TNKS2 / Fold change vs veh, TNKS2 / RFU, ZFP14 / Fold change vs veh, ZFP14 / RFU, ACTR2 / Fold change vs veh, ACTR2 / RFU, PPP3R1 / Fold change vs veh, PPP3R1 / RFU, PIK3R1 / Fold change vs veh, PIK3R1 / RFU, HNRNPA1 / Fold change vs veh, HNRNPA1 / RFU, RNF170 / Fold change vs veh, RNF170 / RFU, ZNF28 / Fold change vs veh, ZNF28 / RFU, RNGTT / Fold change vs veh, RNGTT / RFU, OGT / Fold change vs veh, OGT / RFU, BRD1 / Fold change vs veh, BRD1 / RFU, MARS / Fold change vs veh, MARS / RFU, ZNF655 / Fold change vs veh, ZNF655 / RFU, FAHD1 / Fold change vs veh, FAHD1 / RFU, BDP1 / Fold change vs veh, BDP1 / RFU, LRRCC1 / Fold change vs veh, LRRCC1 / RFU, ARID1A / Fold change vs veh, ARID1A / RFU, ZNF146 / Fold change vs veh, ZNF146 / RFU, ZNF330 / Fold change vs veh, ZNF330 / RFU, GPN3 / Fold change vs veh, GPN3 / RFU, C9orf123 / Fold change vs veh, C9orf123 / RFU, N4BP2L2 / Fold change vs veh, N4BP2L2 / RFU, ARFIP1 / Fold change vs veh, ARFIP1 / RFU, FAM179B / Fold change vs veh, FAM179B / RFU, BCL10 / Fold change vs veh, BCL10 / RFU, UHRF1BP1L / Fold change vs veh, UHRF1BP1L / RFU, BET1 / Fold change vs veh, BET1 / RFU, CNOT2 / Fold change vs veh, CNOT2 / RFU, ZNF268 / Fold change vs veh, ZNF268 / Fold change vs veh, ZNF507 / RFU, DGCR2 / Fold change vs veh, DGCR2 / RFU, WDSUB1 / Fold change vs veh, WDSUB1 / Fold change vs veh, HSP90B1 /// MIR3652 / RFU, ADSS / Fold change vs veh, ADSS / RFU, GK / Fold change vs veh, GK / RFU, ZNF148 / Fold change vs veh, ZNF148 / RFU, TAF9 / Fold change vs veh, TAF9 / RFU, SLC1A5 / Fold change vs veh, SLC1A5 / RFU, SLMO2 / Fold change vs veh, SLMO2 / RFU, ABCC4 / Fold change vs veh, ABCC4 / RFU, LOC101060439 /// RAP1B / Fold change vs veh, LOC101060439 /// RAP1B / RFU, RFX7 / Fold change vs veh, RFX7 / RFU, GTPBP10 / Fold change vs veh, GTPBP10 / RFU, CNEP1R1 / Fold change vs veh, CNEP1R1 / RFU, BIVM-ERCC5 /// ERCC5 / Fold change vs veh, BIVM-ERCC5 /// ERCC5 / RFU, ILF3 / Fold change vs veh, ILF3 / RFU 11762660_at / Fold change /veh 11762660_at / RFU VCAN (11757783_s_at) / Fold change /veh VCAN (11757783_s_at) / RFU DDX43 (11728927_at) / Fold change /veh DDX43 (11728927_at) / RFU KRT8 (11758188_x_at) / Fold change /veh KRT8 (11758188_x_at) / RFU NKD1 (11759106_at) / Fold change /veh NKD1 (11759106_at) / RFU SRD5A1 (11742802_a_at) / Fold change /veh SRD5A1 (11742802_a_at) / RFU TPSAB1 /// TPSB2 (11721975_s_at) / Fold change /veh TPSAB1 /// TPSB2 (11721975_s_at) / RFU GSTM3 (11746129_a_at) / Fold change /veh GSTM3 (11746129_a_at) / RFU IL23R (11737362_x_at) / Fold change /veh IL23R (11737362_x_at) / RFU TMEM51 (11727254_a_at) / Fold change /veh TMEM51 (11727254_a_at) / RFU PIWIL2 (11732686_x_at) / Fold change /veh PIWIL2 (11732686_x_at) / RFU ORM1 (11744905_x_at) / Fold change /veh ORM1 (11744905_x_at) / RFU CCDC152 (11743942_at) / Fold change /veh CCDC152 (11743942_at) / RFU ECM1 (11717891_a_at) / Fold change /veh ECM1 (11717891_a_at) / RFU IL23R (11748794_a_at) / Fold change /veh IL23R (11748794_a_at) / RFU TNFAIP8L3 (11732012_x_at) / Fold change /veh TNFAIP8L3 (11732012_x_at) / RFU MBOAT4 (11741988_at) / Fold change /veh MBOAT4 (11741988_at) / RFU 11764193_at / Fold change /veh 11764193_at / RFU TMEM53 (11763286_at) / Fold change /veh TMEM53 (11763286_at) / RFU MAGEB2 (11727129_at) / Fold change /veh MAGEB2 (11727129_at) / RFU TMEM200A (11744735_a_at) / Fold change /veh TMEM200A (11744735_a_at) / RFU CCDC152 (11751479_a_at) / Fold change /veh CCDC152 (11751479_a_at) / RFU FAM211A (11726209_a_at) / Fold change /veh FAM211A (11726209_a_at) / RFU RGS16 (11746705_a_at) / Fold change /veh RGS16 (11746705_a_at) / RFU VCAN (11755009_s_at) / Fold change /veh VCAN (11755009_s_at) / RFU RHOB (11743442_s_at) / Fold change /veh RHOB (11743442_s_at) / RFU RGS16 (11720943_a_at) / Fold change /veh RGS16 (11720943_a_at) / RFU RGS16 (11720944_at) / Fold change /veh RGS16 (11720944_at) / RFU, VPS4B / Fold change vs veh, VPS4B / RFU, CREB1 / Fold change vs veh, CREB1 / RFU, DNAJC13 / Fold change vs veh, DNAJC13 / RFU, GNAQ / Fold change vs veh, GNAQ / RFU, CDK5R1 / Fold change vs veh, CDK5R1 / RFU, ZRANB3 / Fold change vs veh, ZRANB3 / RFU, CUL4A / Fold change vs veh, CUL4A / RFU, CCNY / Fold change vs veh, CCNY / RFU, UFL1 / Fold change vs veh, UFL1 / RFU, COG3 / Fold change vs veh, COG3 / RFU, DIAPH2 / Fold change vs veh, DIAPH2 / RFU, SKA2 / Fold change vs veh, SKA2 / RFU, AFF3 / Fold change vs veh, AFF3 / RFU, LMF1 / Fold change vs veh, LMF1 / RFU, IPO11 / Fold change vs veh, IPO11 / RFU, DFFB / Fold change vs veh, DFFB / RFU, FOXP1 / Fold change vs veh, FOXP1 / RFU, CARD8 / Fold change vs veh, CARD8 / RFU, STRN3 / Fold change vs veh, STRN3 / RFU, ADK / Fold change vs veh, ADK / RFU, RASSF2 / Fold change vs veh, RASSF2 / RFU, WIPF1 / Fold change vs veh, WIPF1 / RFU, LARP1B / Fold change vs veh, LARP1B / RFU, RASA1 / Fold change vs veh, RASA1 / RFU, RB1 / Fold change vs veh, RB1 / RFU, PPFIA1 / Fold change vs veh, PPFIA1 / RFU, MAT2A / Fold change vs veh, MAT2A / RFU, CCT5 / Fold change vs veh, CCT5 / RFU, WDR92 / Fold change vs veh, WDR92 / RFU, CUX1 / Fold change vs veh, CUX1 / RFU, TTC7A / Fold change vs veh, TTC7A / RFU, TMEM135 / Fold change vs veh, TMEM135 / RFU, DEPTOR / Fold change vs veh, DEPTOR / RFU, CPM / Fold change vs veh, CPM / RFU, DNAJB6 / Fold change vs veh, DNAJB6 / RFU, CACNA2D3 / Fold change vs veh, CACNA2D3 / RFU, DTX4 / Fold change vs veh, DTX4 / RFU, TFCP2 / Fold change vs veh, TFCP2 / RFU, GMCL1 /// GMCL1P1 / Fold change vs veh, GMCL1 /// GMCL1P1 / RFU, AEBP2 / Fold change vs veh, AEBP2 / RFU, SNHG1 /// SNORD22 /// SNORD25 /// SNORD26 /// SNORD27 /// SNORD28 /// SNORD29 /// SNORD31 / Fold change vs veh, SNHG1 /// SNORD22 /// SNORD25 /// SNORD26 /// SNORD27 /// SNORD28 /// SNORD29 /// SNORD31 / Fold change (Aza/veh), C12orf56 (ProbeSet 11735607_a_at) / Fold change (ACY-1035/veh), C12orf56 (ProbeSet 11735607_a_at) / Fold change (Aza/veh), FGFR1OP (ProbeSet 11751329_s_at) / Fold change (ACY-1035/veh), FGFR1OP (ProbeSet 11751329_s_at) / Fold change (Aza/veh), VPS36 (ProbeSet 11739960_a_at) / Fold change (ACY-1035/veh), VPS36 (ProbeSet 11739960_a_at) / RFU SYPL1 (11715823_x_at) / Fold change /veh SYPL1 (11715823_x_at) / RFU IGFBP7 (11715501_s_at) / Fold change /veh IGFBP7 (11715501_s_at) / RFU REEP3 (11722064_at) / Fold change /veh REEP3 (11722064_at) / RFU IGLL1 (11728026_x_at) / Fold change /veh IGLL1 (11728026_x_at): dose or concentration left out as unconfirmed
Conditions: MV-4-11 cells, 48 hours

For `Nc1ccc(-c2cccs2)cc1NC(=O)c1ccc2c(c1)cc(C1CC1)n2CCN1CCOCC1` [ACY-1035], the “RFU CAMK2N1 (11719241_x_at)” value was 51.25 RFU.
